Measurements as given in US4464373A, “4,5-Dihydroimidazo-[1,2-a]quinoxaline-2-carboxylic acids and their derivatives with antiallergic activity” (Roussel Uclaf, priority 1982, dated 1984).

Test system: passive cutaneous reaction mediated by Ig G antibodies
Experiment: Passive cutaneous anaphylaxis of the rat (PCR), Ig G mediated, oral
Assay type: in vivo
Details: male Wistar rats, ovalbumin challenge
Method: Passive cutaneous anaphylaxis of the rat (PCR)
Passive cutaneous anaphylaxis in the rat was carried out with male Wistar rats weighing 180-200 g which were sensitized by intradermal injection into four sites on the shaved back to produce a passive cutaneous reaction mediated by Ig G antibodies (a 4 hour sensitization following injection of antiserum heated at 56° C. for one hour). Antigen challenge was carried out in the same way; 1 mg of ovalbumen together with 0.5 ml of 1% Evans blue dye solution were injected intravenously and 30 minutes later, the animals were killed and the severity and area of each blue spot was scored when viewed from the reverse side of the skin.

| SMILES | inhibition in vivo at 0.1 mg/kg [%] | inhibition in vivo at 1 mg/kg [%] |
| --- | --- | --- |
| CCOC(=O)c1cn2c(n1)CN(C(=O)OC)c1ccccc1-2 [Example 9, Ethyl 4,5-dihydro-5-(methoxycarbonyl)imidazo[1,2-a]quinoxaline-2-carboxylate] | 18.8 | 75.6 |
| CCOC(=O)c1cn2c(n1)CN(C(=O)Nc1ccccc1)c1ccccc1-2 [Example 4, Ethyl 4,5-dihydro-5-(phenylcarboxamido)imidazo[1,2-a]quinoxaline-2-carboxylate] | – | 5.2 |
| CCOC(=O)c1cn2c(n1)CN(C(C)=O)c1ccccc1-2 [Example 7, Ethyl 5-acetyl-4,5-dihydroimidazo[1,2-a]quinoxaline-2-carboxylate] | 32.5 | 49.4 |
| CCOC(=O)c1cn2c(n1)CN(C(=O)OCc1ccccc1)c1ccccc1-2 [Example 8, Ethyl 4,5-dihydro-5-(benzyloxycarbonyl)imidazo[1,2-a]quinoxaline-2-carboxylate] | – | 14.3 |
| CCCCOC(=O)N1Cc2nc(C(=O)OCC)cn2-c2ccccc21 [Example 12, Ethyl 4,5-dihydro-5-(butyloxycarbonyl)imidazo[1,2-a]quinoxaline-2-carboxylate] | – | 26.2 |
| CCOC(=O)c1cn2c(n1)CN(C(=O)NCCN(CC)CC)c1ccccc1-2 [Example 14, Ethyl 4,5-dihydro-5-(diethylaminoethylcarboxamido)imidazo[1,2-a]quinoxaline-2-carboxylate] | 16.8 | 42.8 |
| CCOC(=O)c1cn2c(n1)CN(C(=O)OCC)c1ccccc1-2 [Example 3, Diethyl 4,5-dihydroimidazo[1,2-a]quinoxaline-2,5-dicarboxylate] | 26.3 | 67.5 |
| COC(=O)N1Cc2nc(C(=O)O)cn2-c2ccccc21 [Example 6, 4,5-dihydro-5-(methoxycarbonyl)imidazo[1,2-a]quinoxaline-2-carboxylic acid] | 19 | 61.1 |
| CCOC(=O)c1cn2c(n1)CN(C(=O)NCCN1CCOCC1)c1ccccc1-2 [Example 5B, Ethyl 4,5-dihydro-5-(morpholinoethylcarboxamido)imidazo[1,2-a]quinoxaline-2-carboxylate] | – | 33.8 |
| CCCOC(=O)N1Cc2nc(C(=O)OCC)cn2-c2ccccc21 [Example 11, Ethyl 4,5-dihydro-5-(propyloxycarbonyl)imidazo[1,2-a]quinoxaline-2-carboxylate] | – | 44 |
